Earlier results, collected in patent US7169982B2, “Starch” (Basf Plant Science GmbH, priority 2001, dated 2007).
Like-named read-outs stand apart in the source and are kept apart here.

Tests used:
[1] = tested on: maize starch synthase SSIIb-2 (N-terminally truncated form of mSSIIb produced in E. coli), non-mutant, SEQ ID NO:7; conditions: read-out: Km (ADPGlc)
[2] = tested on: maize starch synthase SSIIb-2 (SEQ ID NO:7) mutant D21N; conditions: read-out: Km (ADPGlc)
[3] = tested on: maize starch synthase SSIIb-2 (SEQ ID NO:7) mutant D21E; conditions: amylopectin as primer, 5 mg/ml; read-out: Km (ADPGlc)
[4] = tested on: maize starch synthase SSIIb-2 (SEQ ID NO:7) mutant D139E; conditions: read-out: Km (ADPGlc)
[5] = tested on: maize starch synthase SSIIb-2 (SEQ ID NO:7) mutant E391D; conditions: read-out: Km (ADPGlc)
[6] = tested on: maize starch synthase SSIIa, wild-type, SEQ ID NO:8; conditions: for Km: read-out: Km for ADPG
[7] = tested on: maize starch synthase SSIIa (SEQ ID NO:8) mutant K193R; conditions: for Km: read-out: Km for ADPG
[8] = tested on: maize starch synthase SSIIa (SEQ ID NO:8) mutant K193Q; conditions: for Km: read-out: Km for ADPG
[9] = tested on: maize starch synthase SSIIa (SEQ ID NO:8) mutant K193E; conditions: for Km: read-out: Km for ADPG
[10] = tested on: maize starch synthase SSIIa (SEQ ID NO:8) mutant K497Q; conditions: for Km: read-out: Km for ADPG

For `Nc1ncnc2c1ncn2[C@@H]1O[C@H](COP(=O)(O)OP(=O)(O)O[C@H]2O[C@H](CO)[C@@H](O)[C@H](O)[C@H]2O)[C@@H](O)[C@H]1O` [ADPGlc, ADP-glucose], the Km ([1]; amylopectin as primer, 5 mg/ml) is given as 160 ± 30 µM, the Km ([1]; glycogen as primer, 20 mg/ml) is given as 130 ± 20 µM and the Km ([2]; amylopectin as primer, 5 mg/ml) is given as 1580 ± 110 µM. The Km ([2]; glycogen as primer, 20 mg/ml) was 1480 ± 30 µM, the Km [3] was 130 ± 30 µM and the Km ([4]; amylopectin as primer, 5 mg/ml) was 90 ± 30 µM. For the same compound, the Km ([4]; glycogen as primer, 20 mg/ml) was 70 ± 20 µM, the Km ([5]; amylopectin as primer, 5 mg/ml) was 1370 ± 140 µM and the Km ([5]; glycogen as primer, 20 mg/ml) was 1180 ± 140 µM. The Vmax ([6]; amylopectin as primer) was 49.9 ± 4.06 μmol/min/mg protein, the Km ([6]; amylopectin as primer) was 110 ± 10 µM and the Vmax ([6]; glycogen as primer) was 34.47 ± 1.70 μmol/min/mg protein. For the same compound, the Km ([6]; glycogen as primer) was 120 ± 10 µM, the Vmax ([7]; amylopectin as primer) was 18.2 ± 0.91 μmol/min/mg protein and the Km ([7]; amylopectin as primer) was 150 ± 10 µM. For the same compound, the Vmax ([7]; glycogen as primer) was 42.27 ± 3.01 μmol/min/mg protein, the Km ([7]; glycogen as primer) was 150 ± 20 µM and the Vmax ([8]; amylopectin as primer) was 17.4 ± 1.58 μmol/min/mg protein. The Km ([8]; amylopectin as primer) was 130 ± 10 µM, the Vmax ([8]; glycogen as primer) was 6.20 ± 0.01 μmol/min/mg protein and the Km ([8]; glycogen as primer) was 100 ± 10 µM. For the same compound, the Vmax ([9]; amylopectin as primer) was 10.53 ± 0.5 μmol/min/mg protein, the Km ([9]; amylopectin as primer) was 220 ± 10 µM and the Vmax ([9]; glycogen as primer) was 25.45 ± 0.08 μmol/min/mg protein. For the same compound, the Km ([9]; glycogen as primer) was 170 ± 20 µM, the Vmax ([10]; amylopectin as primer) was 13.5 ± 0.21 μmol/min/mg protein and the Km ([10]; amylopectin as primer) was 5620 ± 230 µM. The Vmax ([10]; glycogen as primer) was 23.8 ± 2.5 μmol/min/mg protein and the Km ([10]; glycogen as primer) was 6910 ± 330 µM.
